US10954214B2 (Janssen Pharmaceutica NV, priority 2016, dated 2021)

Legend:
[1] = tested on: IL10 secretion by OCI-LY3 ABC-DLBCL cells; assay: Human IL10 Mesoscale assay (OCI-LY3); format: cell-based; conditions: Homo sapiens, 24 h
Procedure, shortened: (§1)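 100,000 cells/well treated with compound in 9 twofold steps from 15 μM to 58.6 nM (0.3% DMSO) for 24 h at 37° C; supernatant cytokine measured by MSD electrochemiluminescence sandwich immunoassay. DMSO wells set maximum signal, BTK inhibitor RN486 (30 nM to 131 pM) set maximum inhibition.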

[2] = target: full-length MALT1 protein (Strep-MALT1(1-824)-His) (Homo sapiens (Human), UniProt Q9UDY8); assay: MALT1 Biochemical Protease Assay (Ac-LRSR-AMC substrate); conditions: 10 nM FL MALT1, 200 μM Ac-LRSR-AMC, 4 h at RT; read-out: MALT1_Biochemical activity (Ac-LRSR-amc) IC50
full-length MALT1 protein (Strep-MALT1(1-824)-His), sequence (Q9UDY8 whole entry): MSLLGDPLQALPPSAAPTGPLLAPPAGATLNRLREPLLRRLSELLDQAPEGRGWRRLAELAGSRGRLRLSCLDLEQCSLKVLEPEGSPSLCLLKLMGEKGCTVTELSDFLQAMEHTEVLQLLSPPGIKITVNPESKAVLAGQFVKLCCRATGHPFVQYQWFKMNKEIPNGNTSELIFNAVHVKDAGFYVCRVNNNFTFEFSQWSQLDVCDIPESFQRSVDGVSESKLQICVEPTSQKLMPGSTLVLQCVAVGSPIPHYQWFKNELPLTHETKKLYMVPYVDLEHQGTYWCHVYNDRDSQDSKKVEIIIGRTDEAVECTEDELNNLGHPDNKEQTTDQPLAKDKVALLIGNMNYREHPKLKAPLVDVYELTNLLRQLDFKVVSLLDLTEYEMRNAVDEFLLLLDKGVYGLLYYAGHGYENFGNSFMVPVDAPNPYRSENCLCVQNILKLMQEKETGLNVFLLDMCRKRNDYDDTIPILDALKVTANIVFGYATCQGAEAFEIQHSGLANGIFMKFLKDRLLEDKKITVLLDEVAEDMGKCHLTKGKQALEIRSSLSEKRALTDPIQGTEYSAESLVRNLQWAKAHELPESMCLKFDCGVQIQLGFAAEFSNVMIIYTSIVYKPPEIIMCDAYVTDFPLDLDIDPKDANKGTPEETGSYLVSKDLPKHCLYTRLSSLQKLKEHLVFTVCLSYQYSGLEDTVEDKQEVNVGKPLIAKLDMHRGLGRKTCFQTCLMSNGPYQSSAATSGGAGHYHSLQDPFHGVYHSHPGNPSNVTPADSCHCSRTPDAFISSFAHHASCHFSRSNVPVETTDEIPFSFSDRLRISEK
Procedure, shortened: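 Fluorescence from AMC release off the quenched LRSR substrate was read after a 4 h reaction at RT. Values were normalised to no-enzyme and uninhibited controls and fitted for IC50 and Hill coefficient.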

[3] = tested on: IL6 secretion by OCI-LY3 ABC-DLBCL cells; assay: Human IL6 Mesoscale assay (OCI-LY3); format: cell-based; conditions: Homo sapiens, 24 h
Procedure, shortened: as §1

Row | Structure (SMILES) | IC50 [1] [nM] | IC50 [2] [nM] | IC50 [3] [nM]
1 | N#Cc1cc(NC(=O)c2cnn(-c3cccc4nc(N)sc34)c2C(F)(F)F)cnc1-n1nccn1 [Cpd 282, 1-(2-aminobenzo[d]thiazol-7-yl)-N-(5-cyano-6-(2H-1,2,3-triazol-2-yl)pyridin-3-yl)-5-(trifluoromethyl)-1H-pyrazole-4-carboxamide] | 417 | 123 | 741
2 | N#Cc1c(C(=O)Nc2cnc(-n3nccn3)c(Cl)c2)cnn1-c1cccc2ncccc12 [Cpd 186, N-(5-Chloro-6-(2H-1,2,3-triazol-2-yl)pyridin-3-yl)-5-cyano-1-(quinolin-5-yl)-1H-pyrazole-4-carboxamide] | 891 | 380 | 1120
3 | Cc1cc(-n2nccn2)c(Cl)cc1NC(=O)c1cnn(-c2cncc3c(F)cccc23)c1C(F)(F)F [Cpd 317, N-(5-chloro-2-methyl-4-(2H-1,2,3-triazol-2-yl)phenyl)-1-(8-fluoroisoquinolin-4-yl)-5-(trifluoromethyl)-1H-pyrazole-4-carboxamide] | 66 | 65 | 72
4 | N#Cc1cc(NC(=O)c2cnn(-c3cccc4cn[nH]c34)c2C(F)(F)F)cnc1-n1nccn1 [Cpd 286, N-(5-cyano-6-(2H-1,2,3-triazol-2-yl)pyridin-3-yl)-1-(1H-indazol-7-yl)-5-(trifluoromethyl)-1H-pyrazole-4-carboxamide] | 200 | 110 | 200
5 | O=C(Nc1ccc(-c2n[nH]c(=O)[nH]2)c(Cl)c1)c1cnn(-c2cccc3ncccc23)c1C(F)(F)F [Cpd 166, N-(3-chloro-4-(5-oxo-4,5-dihydro-1H-1,2,4-triazol-3-yl)phenyl)-1-(quinolin-5-yl)-5-(trifluoromethyl)-1H-pyrazole-4-carboxamide] | 479 | 229 | 457
6 | Cc1ccc(-n2ncc(C(=O)Nc3ccnc(C(F)(F)F)c3)c2C(F)(F)F)c2ccnn12 [Cpd 207, 1-(7-methylpyrazolo[1,5-a]pyridin-4-yl)-5-(trifluoromethyl)-N-(2-(trifluoromethyl)pyridin-4-yl)-1H-pyrazole-4-carboxamide] | 513 | 331 | 525
7 | O=C(Nc1cnc(-n2nccn2)c(Cl)c1)c1cnn(-c2cccc3ncccc23)c1Cl [Cpd 187, 5-Chloro-N-(5-chloro-6-(2H-1,2,3-triazol-2-yl)pyridin-3-yl)-1-(quinolin-5-yl)-1H-pyrazole-4-carboxamide] | 112 | 178 | 162
8 | O=C(Nc1cnc(-n2ccnn2)c(Br)c1)c1cnn(-c2cccc3ncccc23)c1C(F)(F)F [Cpd 287, N-(5-bromo-6-(1H-1,2,3-triazol-1-yl)pyridin-3-yl)-1-(quinolin-5-yl)-5-(trifluoromethyl)-1H-pyrazole-4-carboxamide] | 234 | 95 | 229
9 | O=C(Nc1cnc(-c2nn[nH]n2)c(Cl)c1)c1cnn(-c2cccc3ncccc23)c1C(F)(F)F [Cpd 307, N-(5-chloro-6-(2H-tetrazol-5-yl)pyridin-3-yl)-1-(quinolin-5-yl)-5-(trifluoromethyl)-1H-pyrazole-4-carboxamide] | 427 | 58 | 447
10 | N#Cc1cc(NC(=O)c2cnn(-c3ccnc4cnccc34)c2C(F)(F)F)cnc1-n1nccn1 [Cpd 276, N-(5-cyano-6-(2H-1,2,3-triazol-2-yl)pyridin-3-yl)-1-(1,7-naphthyridin-4-yl)-5-(trifluoromethyl)-1H-pyrazole-4-carboxamide] | 117 | 138 | 186
11 | CCc1nc(-n2nccn2)c(Cl)cc1NC(=O)c1cnn(-c2cccc3nccn23)c1C(F)(F)F [Cpd 195, N-(5-chloro-2-ethyl-6-(2H-1,2,3-triazol-2-yl)pyridin-3-yl)-1-(imidazo[1,2-a]pyridin-5-yl)-5-(trifluoromethyl)-1H-pyrazole-4-carboxamide] | 71 | 324 | 107
12 | Cn1ccc(-c2ncc(NC(=O)c3cnn(-c4cccc5nnsc45)c3C(F)(F)F)cc2Cl)n1 [Cpd 293, 1-(benzo[d][1,2,3]thiadiazol-7-yl)-N-(5-chloro-6-(1-methyl-1H-pyrazol-3-yl)pyridin-3-yl)-5-(trifluoromethyl)-1H-pyrazole-4-carboxamide] | 251 | 76 | 447
13 | N#Cc1cc(NC(=O)c2cnn(-c3cccc4nc(F)ccc34)c2C(F)(F)F)cnc1-n1nccn1 [Cpd 291, N-(5-cyano-6-(2H-1,2,3-triazol-2-yl)pyridin-3-yl)-1-(2-fluoroquinolin-5-yl)-5-(trifluoromethyl)-1H-pyrazole-4-carboxamide] | 100 | 81 | 110

Results, then the compound that gave them:

Row | IC50 [1] [nM] | IC50 [2] [nM] | IC50 [3] [nM] | Structure (SMILES)
14 | 89 | 8910 | 107 | O=C(Nc1cnc(-n2nccn2)c(Cl)c1)c1cnn(-c2cnc(C3CCCO3)c3cccc(C4CCCO4)c23)c1C(F)(F)F (stereo not drawn) [Cpd 366, 1-(1,5-bis(tetrahydrofuran-2-yl)isoquinolin-4-yl)-N-(5-chloro-6-(2H-1,2,3-triazol-2-yl)pyridin-3-yl)-5-(trifluoromethyl)-1H-pyrazole-4-carboxamide]
15 | 182 | 1260 | 204 | O=C(Nc1ccnc(C2CC2)c1)c1cnn(-c2cccc3c(=O)[nH]ccc23)c1C(F)(F)F [Cpd 350, N-(2-cyclopropylpyridin-4-yl)-1-(1-oxo-1,2-dihydroisoquinolin-5-yl)-5-(trifluoromethyl)-1H-pyrazole-4-carboxamide]
16 | 87 | 117 | 107 | Nc1ncc(-n2ncc(C(=O)Nc3ccnc(C(F)(F)F)c3)c2C(F)(F)F)c2ccccc12 [Cpd 339, 1-(1-aminoisoquinolin-4-yl)-5-(trifluoromethyl)-N-(2-(trifluoromethyl)pyridin-4-yl)-1H-pyrazole-4-carboxamide]
17 | 20 | 2690 | 20 | COc1cc(NC(=O)c2cnn(-c3cccc4c(=O)[nH]ccc34)c2C(F)(F)F)ccn1 [Cpd 360, N-(2-methoxypyridin-4-yl)-1-(1-oxo-1,2-dihydroisoquinolin-5-yl)-5-(trifluoromethyl)-1H-pyrazole-4-carboxamide]
18 | 44 | 54 | 123 | Cn1cc(-n2ncc(C(=O)Nc3cnc(-n4nccn4)c(Cl)c3)c2C(F)(F)F)c2ccccc2c1=O [Cpd 423, N-(5-chloro-6-(2H-1,2,3-triazol-2-yl)pyridin-3-yl)-1-(2-methyl-1-oxo-1,2-dihydroisoquinolin-4-yl)-5-(trifluoromethyl)-1H-pyrazole-4-carboxamide]
19 | 29 | 155 | 34 | O=C1CCC(c2ncc(-n3ncc(C(=O)Nc4cnc(-n5nccn5)c(Cl)c4)c3C(F)(F)F)c3ccccc23)N1 (stereo not drawn) [Cpd 369, N-(5-chloro-6-(2H-1,2,3-triazol-2-yl)pyridin-3-yl)-1-(1-(5-oxopyrrolidin-2-yl)isoquinolin-4-yl)-5-(trifluoromethyl)-1H-pyrazole-4-carboxamide]
20 | 68 | 195 | 100 | Cc1ncc(NC(=O)c2cnn(-c3cccc4c(=O)[nH]ccc34)c2C(F)(F)F)cc1C(F)(F)F [Cpd 348, N-(6-methyl-5-(trifluoromethyl)pyridin-3-yl)-1-(1-oxo-1,2-dihydroisoquinolin-5-yl)-5-(trifluoromethyl)-1H-pyrazole-4-carboxamide]
21 | 891 | 977 | 1120 | O=C(Nc1cnc(-n2nccn2)c(Cl)c1)c1cnn(-c2cccc3nc([C@@H]4CCCO4)ccc23)c1C(F)(F)F (single isomer, unassigned) [Cpd 441, (*S)—N-(5-chloro-6-(2H-1,2,3-triazol-2-yl)pyridin-3-yl)-1-(2-(tetrahydrofuran-2-yl)quinolin-5-yl)-5-(trifluoromethyl)-1H-pyrazole-4-carboxamide]
22 | 209 | 123 | 295 | N#Cc1cc(NC(=O)c2cnn(-c3cccc4c(=O)[nH]ccc34)c2C(F)(F)F)ccn1 [Cpd 356, N-(2-cyanopyridin-4-yl)-1-(1-oxo-1,2-dihydroisoquinolin-5-yl)-5-(trifluoromethyl)-1H-pyrazole-4-carboxamide]
23 | 83 | 102 | 98 | CNC(=O)c1ncc(-n2ncc(C(=O)Nc3cnc(-n4nccn4)c(Cl)c3)c2C(F)(F)F)c2ccccc12 [Cpd 390, 4-(4-((5-chloro-6-(2H-1,2,3-triazol-2-yl)pyridin-3-yl)carbamoyl)-5-(trifluoromethyl)-1H-pyrazol-1-yl)-N-methylisoquinoline-1-carboxamide]
24 | 68 | 71 | 93 | Cc1nc(-n2nccn2)c(Cl)cc1NC(=O)c1cnn(-c2c[n+]([O-])cc3sccc23)c1C(F)(F)F [Cpd 410, 4-(4-((5-chloro-2-methyl-6-(2H-1,2,3-triazol-2-yl)pyridin-3-yl)carbamoyl)-5-(trifluoromethyl)-1H-pyrazol-1-yl)thieno[2,3-c]pyridine 6-oxide]
25 | 912 | 22 | 1780 | N#Cc1cc(-n2ncc(C(=O)Nc3cnc(-n4nccn4)c(Cl)c3)c2C(F)(F)F)c2ccccc2n1 [Cpd 412, N-(5-chloro-6-(2H-1,2,3-triazol-2-yl)pyridin-3-yl)-1-(2-cyanoquinolin-4-yl)-5-(trifluoromethyl)-1H-pyrazole-4-carboxamide]
